In the test the target is T1, OA/TAT (octopamine/tyramine transporter) (Trichoplusia ni, UniProt Q95VZ4, D309A/R312W).
T1 sequence (Q95VZ4 75-744 D309A/R312W): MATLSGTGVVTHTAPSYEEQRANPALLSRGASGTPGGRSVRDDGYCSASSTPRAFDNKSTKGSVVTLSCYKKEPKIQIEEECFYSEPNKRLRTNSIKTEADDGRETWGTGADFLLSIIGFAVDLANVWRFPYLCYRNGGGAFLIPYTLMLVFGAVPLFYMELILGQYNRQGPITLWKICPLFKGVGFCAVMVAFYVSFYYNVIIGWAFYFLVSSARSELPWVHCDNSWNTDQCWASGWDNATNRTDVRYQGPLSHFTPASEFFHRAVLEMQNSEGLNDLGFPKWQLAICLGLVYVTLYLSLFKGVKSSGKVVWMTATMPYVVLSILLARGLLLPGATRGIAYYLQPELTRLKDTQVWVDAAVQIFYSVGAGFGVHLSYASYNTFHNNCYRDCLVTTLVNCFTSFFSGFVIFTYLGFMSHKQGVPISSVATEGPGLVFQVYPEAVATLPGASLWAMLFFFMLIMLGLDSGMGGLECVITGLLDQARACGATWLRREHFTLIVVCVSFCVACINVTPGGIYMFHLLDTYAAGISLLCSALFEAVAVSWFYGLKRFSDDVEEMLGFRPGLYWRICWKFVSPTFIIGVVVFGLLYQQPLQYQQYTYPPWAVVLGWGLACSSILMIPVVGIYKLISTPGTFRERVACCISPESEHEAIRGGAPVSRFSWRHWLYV
In words: 3H-dopamine uptake by OA/TAT expressed in baculovirus-infected Sf21 insect cells (transport assay). The following applies: for inhibition at 10 µM: read-out: % Inhibition of 3H-Dopamine uptake by OA/TAT. In kind it is cell-based.

The values below come from patent US7244837B2, “Insect monoamine transporter and methods of use thereof” (The University of Western Ontario, priority 1999, dated 2007).

One may read the IC50 as the concentration at which inhibition is half-maximal. A low value points to greater potency. Usually Ki stands for a measure of affinity in units of concentration, obtained from inhibition or displacement. High values mean lower affinity, low ones higher affinity. Take `NCC(O)c1ccc(O)cc1` (racemic) [Octopamine, DL-Octopamine]: the midpoint of inhibition, the IC50, lay at 1920 ± 280 nM; the Ki stood at 1740 ± 250 nM; the inhibition at 10 µM was determined as 80.9%.
In the case of `CNCC(O)c1ccc(O)cc1` (racemic) [Synephrine, (±)-Synephrine], the inhibition at 10 µM was 6.39%.
In the case of `NCCc1ccc(O)c(O)c1` [Dopamine, 3-Hydroxytyramine], inhibition was half-maximal at 4100 ± 1020 nM (IC50), the Ki was 3720 ± 920 nM and the inhibition at 10 µM is 70.2%.
Regarding `Fc1ccc(C(OCCN2CCN(CCCc3ccccc3)CC2)c2ccc(F)cc2)cc1` [GBR12909], the inhibition at 10 µM was -10%.
`NCCc1c[nH]cn1` [Histamine]: the inhibition at 10 µM is -1.81%.
On to `NC[C@H](O)c1ccc(O)c(O)c1` [Norepinephrine, (−)-Arterenol], for which the IC50 is 22000 ± 2940 nM, the Ki was 20000 ± 2670 nM and the inhibition at 10 µM was 27.2%.
Take `CN[C@@H](C)[C@@H](O)c1ccccc1` [Pseudoephedrine, (−)-ψ-Ephedrine]: the inhibition at 10 µM was determined as 1.31%.
As to `NCCc1c[nH]c2ccc(O)cc12` [Serotonin, 5-Hydroxytryptamine], the inhibition at 10 µM is -3.6%.
As to `NCCc1c[nH]c2ccccc12` [Tryptamine], the inhibition at 10 µM was 9.57%.
Consider `NCCc1ccc(O)cc1` [Tyramine], for which the IC50 came to 390 ± 110 nM, the affinity corresponds to a Ki of 350 ± 100 nM and the inhibition at 10 µM was found to be 96.5%.
